Measurements as given in patent US11684599B2, “Very-long-chain polyunsaturated fatty acids, elovanoid hydroxylated derivatives, and methods of use” (Board of Supervisors of Louisiana State University and …, priority 2017, dated 2023).

Key:
Assay type in all cases: cell-based, rat
[1] = test system: cerebral cortical mixed neuronal cells or hippocampal neurons; assay: Oxygen glucose deprivation (OGD) of neurons in culture, cell viability; conditions: for neuroprotection against OGD-induced neuronal cell death: 200 nM, 500 nM or 1 μM added after 90 mins OGD and 2 h reoxygenation, Hoechst, calcein or MTT
Text: (§1) Primary cultures of cortical and hippocampal neurons were harvested from 18-day-old embryos (E18) taken from timed-pregnant, two-month-old Sprague-Dawley (SD) rats (Charles River Lab., Wilmington, Mass.). Briefly, timed-pregnant SD rats were euthanized and embryos were collected in sterile conditions. Embryonic brains were dissected out by forceps on ice and placed in a petri dish containing ice-cold Hank's Balanced Salt Solution (HBSS) (GIBCO). Meninges were removed under a dissecting microscope and cortical tissues were chopped into small pieces with micro-spring scissors. These tissues were transferred to 15 ml tubes containing trypsin-EDTA (0.025% in HBSS) and DNase I. The tubes were incubated in 37° C. chamber for 15 mins and were agitated every 5 mins. After stopping the trypsinization with 5 ml 10% FBS, these tissues were triturated 15 times with a fire polished Pasteur pipet. Cell clumps were left to settle for 2 mins and the supernatant was transferred to a 15 ml Eppendorf tube. The supernatant was filtered through a 70 μm pore-sized filter (Corning cell strainer) and centrifuged for 5 mins at 1000 rpm. The cells were then resuspended in Neurobasal medium (GIBCO) containing 2% B27 (GIBCO) and 2% N2 (GIBCO) supplements, along with 0.5 mM glutamine, 50 U/ml penicillin/streptomycin.
(§2) Cells were counted using a Neubauer hemocytometer. 1×10^6 cells were seeded on poly-D-lysine-coated 12 well cell culture dish (CORNING) and cultured in incubator (37° C., 5% CO2). Culture medium was first replaced after 24 h, then half of the medium was replaced with fresh medium every three days. As a result, approximately, 90% purity of neurons was obtained as determined by class-III-β tubulin, GFAP and Hoechst 33258 staining. Cells were maintained in culture for about 2 weeks until they were exposed to uncompensated oxidative stress, OGD, or NMDA excitotoxicity.
An in vitro oxygen glucose deprivation (OGD) model was established. Primary cortical neurons were cultured from SD rat embryos. On day in vitro (DIV) 12, cells were washed with phosphate-buffered saline and incubated in glucose-free Neurobasal medium (GIBCO) for 30 mins. The cells were then placed in a modular incubator chamber and incubated in an anaerobic chamber (95% N2, 5% CO2) at 37° C. for 90 mins for OGD.
After 90 mins of OGD exposure, cells were returned to the original medium (Neurobasal medium (GIBCO) containing 2% B27 (GIBCO) and 2% N2 (GIBCO) supplements, along with 0.5 mM glutamine, 50 U/ml penicillin/streptomycin) and placed in a normoxic chamber (37° C., 5% CO2) for 2 h. […] a normoxic chamber (37° C., 5% CO2) for 12 h, after which cells were sampled and assayed for cell viability using different methods as previously described (25-28). Cerebral cortical mixed neuronal cells or hippocampal cells in culture were exposed to either NMDA or uncompensated oxidative stress (UOS) for 12 h by addition of either NMDA (25 μM, 50 μM, or 100 μM) concentration or by the addition of TNFα (10 ng/mL) and H2O2 (50 μM, 100 μM, or 200 μM). Cell viability and neuroprotection in the presence of ELV-N32, ELV-N34, 32:6, or 34:6 were assayed after 12 h.
(§3) Cells were washed with 1× Dulbecco's Phosphate Buffered Saline (DPBS) containing no calcium or magnesium (GIBCO) and fixed for 10 mins using ice-cold 4% paraformaldehyde (PFA) followed by 15 mins incubation in 100% methanol. Cells were washed with 1× Phosphate Buffered Saline (PBS) pH 7.4 (GIBCO) and incubated in PBS containing 20 μM Hoechst 33258 (Molecular Probes) for 20 mins. Cells were then washed 3 times with 1×PBS and stored in 1×PBS at 4° C. until they were imaged for microscopy.
One 4×4 tile mosaic was acquired from the center of each well using a Zeiss 510 Meta laser confocal microscope and LSM 510 Meta software. Images were imported into image analysis software ImageJ (National Institutes of Health, Bethesda, Md.) and batch processed using custom macros. […]

[2] = test system: cerebral-cortical mixed neuronal cells and hippocampal neurons; assay: NMDA excitotoxicity of neurons in culture, cell viability; conditions: for synergy with NPD1 in neuroprotection against NMDA excitotoxicity: ELV 200 nM with NPD1 100 nM; for synergy with NPD1 in neuroprotection against NMDA excitotoxicity / neuroprotection against NMDA excitotoxicity (Hoechst): NMDA 100 μM; for synergy with NPD1 in neuroprotection against NMDA excitotoxicity / NMDA-induced neuronal death / neuroprotection against NMDA excitotoxicity (Hoechst): 12 h; for NMDA-induced neuronal death: ELV (Na or Me) 200 nM or 500 nM added along with NMDA 25, 50 or 100 μM; for neuroprotection with MK801 and NPD1 added together: compared with ELV-N32-Na or ELV-N32-Me alone; for neuroprotection against NMDA excitotoxicity (Hoechst): 500 nM, DIV 12
Text: as §1, §2
After 90 mins of OGD exposure, cells were returned to the original medium (Neurobasal medium (GIBCO) containing 2% B27 (GIBCO) and 2% N2 (GIBCO) supplements, along with 0.5 mM glutamine, 50 U/ml penicillin/streptomycin) and placed in a normoxic chamber (37° C., 5% CO2) for 2 h. Then the medium was changed with medium containing either ELV-N32 or ELV-N34 [500 nM] and maintained in a normoxic chamber (37° C., 5% CO2) for 12 h, after which cells were sampled and assayed for cell viability using different methods as previously described (25-28). Cerebral cortical mixed neuronal cells or hippocampal cells in culture were exposed to either NMDA or uncompensated oxidative stress (UOS) for 12 h by addition of either NMDA (25 μM, 50 μM, or 100 μM) concentration or by the addition of TNFα (10 ng/mL) and H2O2 (50 μM, 100 μM, or 200 μM). Cell viability and neuroprotection in the presence of ELV-N32, ELV-N34, 32:6, or 34:6 were assayed after 12 h.
as §3
One 4×4 tile mosaic was acquired from the center of each well using a Zeiss 510 Meta laser confocal microscope and LSM 510 Meta software. Images were imported into image analysis software ImageJ (National Institutes of Health, Bethesda, Md.) and batch processed using custom macros. An Otsu auto threshold was applied to each image of Hoechst-stained nuclei, and the area of each detected object was recorded. Objects with areas <10 μm^2 were excluded from analysis. To estimate percentage non-pyknotic nuclei, a size cutoff value was chosen above which objects were assumed to be non-pyknotic. […]

[3] = test system: cerebral-cortical mixed neuronal cells; assay: Uncompensated oxidative stress (TNFα plus H2O2) of neurons in culture; conditions: 200 nM; TNFα 10 ng/mL and H2O2 (50, 100 or 200 μM), 12 h
Text: as §1
Cells were counted using a Neubauer hemocytometer. 1×10^6 cells were seeded on poly-D-lysine-coated 12 well cell culture dish (CORNING) and cultured in incubator (37° C., 5% CO2). Culture medium was first replaced after 24 h, then half of the medium was replaced with fresh medium every three days. As a result, approximately, 90% purity of neurons was obtained as determined by class-III-β tubulin, GFAP and Hoechst 33258 staining. […]
One 4×4 tile mosaic was acquired from the center of each well using a Zeiss 510 Meta laser confocal microscope and LSM 510 Meta software. […] An Otsu auto threshold was applied to each image of Hoechst-stained nuclei, and the area of each detected object was recorded. […]

[4] = 250 nM added after OGD exposure
[5] = 500 nM, 90 min OGD, hippocampal (DIV 12) or cortical (DIV 28) culture

Row | Compound | neuroprotection after OGD by VLC-PUFA precursor [1, 4] | neuroprotection after OGD by VLC-PUFA precursor [1, 5] | neuroprotection against OGD-induced neuronal cell death [1] | neuroprotection against uncompensated oxidative stress [3] | synergy with NPD1 in neuroprotection against NMDA excitotoxicity [2] | NMDA-induced neuronal death [2] | neuroprotection with MK801 and NPD1 added together [2] | neuroprotection against NMDA excitotoxicity (Hoechst) [2] | other results
1 | CC/C=C\C/C=C\C/C=C\C/C=C\C/C=C\C/C=C\CCCCCCCCCCCCC(=O)O [32:6n3, (14Z,17Z,20Z,23Z,26Z,29Z)-dotriaconta-14,17,20,23,26,29-hexaenoic acid] | provide neuroprotection | showed neuroprotection | – | – | – | – | – | – | NMDA excitotoxicity ([2]; precursor at 250 nM): attenuate NMDA excitotoxicity
2 | CC/C=C\C/C=C\C/C=C\C/C=C\C/C=C\C/C=C\CCCCCCCCCCCCCCC(=O)O [34:6n3, (16Z,19Z,22Z,25Z,28Z,31Z)-tetratriaconta-16,19,22,25,28,31-hexaenoic acid] | elicit neuroprotection | showed neuroprotection | – | – | – | – | – | – | NMDA receptor-mediated excitotoxicity ([2]; precursor at 500 nM): attenuates NMDA receptor-mediated excitotoxicity
3 | CC/C=C\C[C@H](O)\C=C/C=C/C=C/[C@H](O)C/C=C\C/C=C\CCCCCCCCCCCCC(=O)OC [ELV-N32-Me, methyl (14Z,17Z,20R,21E,23E,25Z,27S,29Z)-20,27-dihydroxydotriaconta-14,17,21,23,25,29-hexaenoate] | – | – | elicited neuroprotection | evoked neuroprotection | showed synergy | compensated for | improved the neuroprotection | – | relative potency of the combination with NPD1 ([2]; ELV-N32-Me plus NPD1 versus ELV-N32-Na plus NPD1): more potent
4 | CC/C=C\C[C@H](O)\C=C/C=C/C=C/[C@H](O)C/C=C\C/C=C\CCCCCCCCCCCCC(=O)[O-].[Na+] [ELV-N32-Na, sodium (14Z,17Z,20R,21E,23E,25Z,27S,29Z)-20,27-dihydroxydotriaconta-14,17,21,23,25,29-hexaenoate] | – | – | elicited neuroprotection | evoked neuroprotection | showed synergy | compensated for | improved the neuroprotection | neuroprotection elicited | –
5 | CC/C=C\C[C@H](O)\C=C/C=C/C=C/[C@H](O)C/C=C\C/C=C\CCCCCCCCCCCCCCC(=O)OC [ELV-N34-Me, methyl (16Z,19Z,22R,23E,25E,27Z,29S,31Z)-22,29-dihydroxytetratriaconta-16,19,23,25,27,31-hexaenoate] | – | – | elicited neuroprotection | – | – | – | – | neuroprotection elicited | –
6 | CC/C=C\C[C@H](O)\C=C/C=C/C=C/[C@H](O)C/C=C\C/C=C\CCCCCCCCCCCCCCC(=O)[O-].[Na+] [ELV-N34-Na, sodium (16Z,19Z,22R,23E,25E,27Z,29S,31Z)-22,29-dihydroxytetratriaconta-16,19,23,25,27,31-hexaenoate] | – | – | elicited neuroprotection | neuroprotection elicited | – | – | – | – | –
